# In patent publication US10487088B2, “Tricyclic compound serving as immunomodulator” (Chia Tai Tianqing Pharmaceutical Group Co., Ltd., priority 2016, dated 2019):
# Target: T1, recombinant human IDO1 enzyme (Homo sapiens, UniProt P14902)
# T1 construct: purchased NTRC NTRC-hlDO-10K
# Assay: In vitro hIDO1 enzyme activity test (NFK Green fluorescence)
# Assay type: biochemical
# Conditions: recombinant human IDO1, L-tryptophan substrate, pH 6.5
# Experimental: The change of NFK production was detected by using the NFK Green™ fluorescent molecule, which is the metabolite of the IDO1 enzyme, and the IC50 value of the compound was used as an index, to evaluate the inhibitory effect of the compound on the recombinant human IDO1 enzyme.
# IDO1 Enzyme Activity Assay Kit, NTRC # NTRC-hlDO-10K;
# The compound was diluted to 1 mM in DMSO, and then diluted 3-fold in duplicate wells, with 10 gradients. 48 μL of 50 mM phosphate buffer (pH 6.5) was transferred to the compound plate via Bravo automated liquid handling platform. 2 μL of the diluted solution of the compound in DMSO was then added and mixed, followed by transferring 10 μL therein to an enzyme reaction plate.
# The IDO1 enzyme was diluted to 20 nM in the reaction buffer (50 mM phosphate buffer pH 6.5, 0.1% Tween-20, 2% glycerol, 20 mM ascorbic acid, 20 μg/mL catalase and 20 μM methylene blue), and 20 μL of the solution was transferred to an enzyme reaction plate and incubated at 23° C. for 30 min. The reaction was started by adding 10 μL of 400 μM L-type tryptophan substrate and incubated at 23° C. for 90 min. 10 μL of NFK Green™ fluorescent dye was added, and the plate was sealed with the sealing film, incubated at 37° C. for 4 h, and then read on Envision Multimode Plate Reader (Ex 400 nm/Em 510 nm).
# The control wells with the IDO1 enzyme but no compound was set as 0% inhibition, and the control wells without the IDO1 enzyme was set as 100% inhibition, and the IC50 value of the compound was calculated by analyzing the data with XLFit 5.
# T1 sequence (P14902 whole entry): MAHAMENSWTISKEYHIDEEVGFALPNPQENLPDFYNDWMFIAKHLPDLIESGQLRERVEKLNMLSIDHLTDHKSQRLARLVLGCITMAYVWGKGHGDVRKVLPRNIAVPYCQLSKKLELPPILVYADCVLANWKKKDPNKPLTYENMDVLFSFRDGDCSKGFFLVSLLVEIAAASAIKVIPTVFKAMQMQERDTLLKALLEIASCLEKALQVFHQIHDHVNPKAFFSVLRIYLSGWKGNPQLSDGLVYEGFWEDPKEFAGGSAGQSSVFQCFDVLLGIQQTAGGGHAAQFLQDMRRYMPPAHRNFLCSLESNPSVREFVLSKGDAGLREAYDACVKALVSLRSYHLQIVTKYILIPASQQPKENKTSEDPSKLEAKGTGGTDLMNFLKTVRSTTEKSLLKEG
row,IC50 [µM],Compound
1,> 10,"c1ccc2c(C3CCC(C4c5sccc5-c5cncn54)CC3)ccnc2c1 (single isomer, unassigned) [Example 93, 5-(4-(quinolin-4-yl)cyclohexyl)-8H-thieno[3′,2′:3,4]pyrrolo[1,2-c]imidazole]"
2,1.46,"c1ccc2c(C3CCC(C4c5sccc5-c5cncn54)CC3)ccnc2c1 (single isomer, unassigned) [Example 94, 5-(4-(quinolin-4-yl)cyclohexyl)-8H-thieno[3′,2′:3,4]pyrrolo[1,2-c]imidazole]"
3,> 10,"c1ccc2c(C3CCC(C4c5sccc5-c5cncn54)CC3)ccnc2c1 (single isomer, unassigned) [Example 95, 5-(4-(quinolin-4-yl)cyclohexyl)-8H-thieno[3′,2′:3,4]pyrrolo[1,2-c]imidazole]"
4,> 10,"O=C(O)C1CCCC(C2c3sccc3-c3cncn32)C1 (single isomer, unassigned) [Example 97, 3-(8H-thieno[3,4]pyrrolo[1,5-a]imidazol-8-yl) cyclohexylcarboxylic acid]"
5,> 10,"O=C(O)C1CCCC(C2c3sccc3-c3cncn32)C1 (single isomer, unassigned) [Example 98, 3-(8H-thieno[3,4]pyrrolo[1,5-a]imidazol-8-yl) cyclohexylcarboxylic acid]"
6,> 10,"O=C(O)C1CCCC(C2c3sccc3-c3cncn32)C1 (single isomer, unassigned) [Example 99, 3-(8H-thieno[3,4]pyrrolo[1,5-a]imidazol-8-yl) cyclohexylcarboxylic acid]"
7,6.77,"O=C(O)C1CCCC(C2c3sccc3-c3cncn32)C1 (single isomer, unassigned) [Example 100, 3-(8H-thieno[3,4]pyrrolo[1,5-a]imidazol-8-yl) cyclohexylcarboxylic acid]"
8,> 10,"O=C(O)C1CCCC(C2c3sccc3-c3cncn32)C1 (single isomer, unassigned) [Example 101, 3-(8H-thieno[3,4]pyrrolo[1,5-a]imidazol-8-yl) cyclohexylcarboxylic acid]"
9,> 10,"O=C(O)C1CCCC(C2c3sccc3-c3cncn32)C1 (single isomer, unassigned) [Example 102, 3-(8H-thieno[3,4]pyrrolo[1,5-a]imidazol-8-yl) cyclohexylcarboxylic acid]"
10,> 10,"O=C(O)C1CCCC(C2c3sccc3-c3cncn32)C1 (single isomer, unassigned) [Example 103, 3-(8H-thieno[3,4]pyrrolo[1,5-a]imidazol-8-yl) cyclohexylcarboxylic acid]"
11,> 10,"O=C(O)C1CCCC(C2c3sccc3-c3cncn32)C1 (single isomer, unassigned) [Example 104, 3-(8H-thieno[3,4]pyrrolo[1,5-a]imidazol-8-yl) cyclohexylcarboxylic acid]"
12,0.183,"O[C@@H]1CCCC1[C@H]1c2sccc2-c2cncn21 (single isomer, unassigned) [Example 107, (trans)-2-(8H-thieno[3′,2′:3,4]pyrrolo[1,2-c]imidazol-8-yl)cyclopentanol]"
13,> 10,"O[C@@H]1CCCC1[C@H]1c2sccc2-c2cncn21 (single isomer, unassigned) [Example 108, (trans)-2-(8H-thieno[3′,2′:3,4]pyrrolo[1,2-c]imidazol-8-yl)cyclopentanol]"
14,> 10,"O[C@@H]1CCCC1[C@H]1c2sccc2-c2cncn21 (single isomer, unassigned) [Example 109, (trans)-2-(8H-thieno[3′,2′:3,4]pyrrolo[1,2-c]imidazol-8-yl)cyclopentanol]"

# The remaining lines, values behind:
row,Compound,IC50 [µM]
1,"OC1CCCC(C2c3sccc3-c3cncn32)C1 (single isomer, unassigned) [Example 65, 3-(8H-thieno[3′,2′:3,4]pyrrolo[1,2-c]imidazol-8-yl)cyclohexanol]",5.53
2,"OC1CCCC(C2c3sccc3-c3cncn32)C1 (single isomer, unassigned) [Example 66, 3-(8H-thieno[3′,2′:3,4]pyrrolo[1,2-c]imidazol-8-yl)cyclohexanol]",> 10
3,"OC1CCCC(C2c3sccc3-c3cncn32)C1 (single isomer, unassigned) [Example 67, 3-(8H-thieno[3′,2′:3,4]pyrrolo[1,2-c]imidazol-8-yl)cyclohexanol]",0.162
4,"OC1CCCC(C2c3sccc3-c3cncn32)C1 (single isomer, unassigned) [Example 68, 3-(8H-thieno[3′,2′:3,4]pyrrolo[1,2-c]imidazol-8-yl)cyclohexanol]",1.83
5,"OC1CCCC(C2c3sccc3-c3cncn32)C1 (single isomer, unassigned) [Example 69, 3-(8H-thieno[3′,2′:3,4]pyrrolo[1,2-c]imidazol-8-yl)cyclohexanol]",2.32
6,"OC1CCCC(C2c3sccc3-c3cncn32)C1 (single isomer, unassigned) [Example 70, 3-(8H-thieno[3′,2′:3,4]pyrrolo[1,2-c]imidazol-8-yl)cyclohexanol]",1.09
7,"OC1CCCC(C2c3sccc3-c3cncn32)C1 (single isomer, unassigned) [Example 71, 3-(8H-thieno[3′,2′:3,4]pyrrolo[1,2-c]imidazol-8-yl)cyclohexanol]",> 10
8,"c1cc2c(s1)C(C1CCCC1)n1cncc1-2 (single isomer, unassigned) [Example 74, 8-cyclopentyl-8H-thieno[3,4]pyrrolo[1,5-a]imidazole]",0.257
9,"c1cc2c(s1)C(C1CCCC1)n1cncc1-2 (single isomer, unassigned) [Example 75, 8-cyclopentyl-8H-thieno[3,4]pyrrolo[1,5-a]imidazole]",> 10
10,"FC1(F)[C@@H]2C[C@H](C3c4sccc4-c4cncn43)C[C@@H]21 (single isomer, unassigned) [Example 76, 8-(6,6-difluoro-3-bicyclo[3.1.0]cyclohexyl)-8H-thieno[3,4]pyrrolo[1,5-a]imidazole (cis)]",0.883
11,"CC1(C)CC(C2c3sccc3-c3cncn32)CCO1 (single isomer, unassigned) [Example 78, 8-(2,2-dimethyltetrahydropyran-4-yl)-8H-thieno[3,4]pyrrolo[1,5-a]imidazole]",> 10
12,"CC1(C)CC(C2c3sccc3-c3cncn32)CCO1 (single isomer, unassigned) [Example 79, 8-(2,2-dimethyltetrahydropyran-4-yl)-8H-thieno[3,4]pyrrolo[1,5-a]imidazole]",> 10
13,"CC1(C)CC(C2c3sccc3-c3cncn32)CCO1 (single isomer, unassigned) [Example 80, 8-(2,2-dimethyltetrahydropyran-4-yl)-8H-thieno[3,4]pyrrolo[1,5-a]imidazole]",5.05
14,"CC1(C)CC(C2c3sccc3-c3cncn32)CCO1 (single isomer, unassigned) [Example 81, 8-(2,2-dimethyltetrahydropyran-4-yl)-8H-thieno[3,4]pyrrolo[1,5-a]imidazole]",8.27
15,"OC1CCCCC1C1c2sccc2-c2cncn21 (single isomer, unassigned) [Example 82]",1.55
16,"OC1CCCCC1C1c2sccc2-c2cncn21 (single isomer, unassigned) [Example 83]",1.27
17,"OC1CCCCC1C1c2sccc2-c2cncn21 (single isomer, unassigned) [Example 84]",0.454
18,"c1ccc(N2CCC(C3c4sccc4-c4cncn43)CC2)cc1 (single isomer, unassigned) [Example 86, 8-(1-phenylpiperidin-4-yl)-8H-thieno[3′,2′:3,4]pyrrolo[1,2-c]imidazole]",0.545
19,"c1ccc(N2CCC(C3c4sccc4-c4cncn43)CC2)cc1 (single isomer, unassigned) [Example 87, 8-(1-phenylpiperidin-4-yl)-8H-thieno[3′,2′:3,4]pyrrolo[1,2-c]imidazole]",> 10
20,"c1ccc(C2CCC(C3c4sccc4-c4cncn43)CC2)cc1 (single isomer, unassigned) [Example 88, 8-(4-phenylcyclohexyl)-8H-thieno[3′,2′:3,4]pyrrolo[1,2-c]imidazole]",0.478
21,"c1ccc(C2CCC(C3c4sccc4-c4cncn43)CC2)cc1 (single isomer, unassigned) [Example 89, 8-(4-phenylcyclohexyl)-8H-thieno[3′,2′:3,4]pyrrolo[1,2-c]imidazole]",> 10
22,"Cc1cc2c(s1)C(C1CCCCC1)n1cncc1-2 (single isomer, unassigned) [Example 90, 8-cyclohexyl-2-dimethyl-8H-thieno[3′,2′:3,4]pyrrolo[1,2-c]imidazole]",> 10
23,"Cc1cc2c(s1)C(C1CCCCC1)n1cncc1-2 (single isomer, unassigned) [Example 91, 8-cyclohexyl-2-dimethyl-8H-thieno[3′,2′:3,4]pyrrolo[1,2-c]imidazole]",6.75
24,"c1ccc2c(C3CCC(C4c5sccc5-c5cncn54)CC3)ccnc2c1 (single isomer, unassigned) [Example 92, 5-(4-(quinolin-4-yl)cyclohexyl)-8H-thieno[3′,2′:3,4]pyrrolo[1,2-c]imidazole]",0.686
